For 24 compounds, EC50 results are on record in patent publication US20080125424A1, “Derivatives of urea and related diamines, methods for their manufacture, and uses therefor” (priority 2006, published 2008).

Molecules are shown by their SMILES. Counter-ions that a name gives are not always drawn.

For this test, the target named is T1, human parathyroid cell Ca2+ receptor (hPCaR) (Homo sapiens, UniProt P41180).
T1 construct: expressed in transfected cells
T1 sequence (P41180 20-1078): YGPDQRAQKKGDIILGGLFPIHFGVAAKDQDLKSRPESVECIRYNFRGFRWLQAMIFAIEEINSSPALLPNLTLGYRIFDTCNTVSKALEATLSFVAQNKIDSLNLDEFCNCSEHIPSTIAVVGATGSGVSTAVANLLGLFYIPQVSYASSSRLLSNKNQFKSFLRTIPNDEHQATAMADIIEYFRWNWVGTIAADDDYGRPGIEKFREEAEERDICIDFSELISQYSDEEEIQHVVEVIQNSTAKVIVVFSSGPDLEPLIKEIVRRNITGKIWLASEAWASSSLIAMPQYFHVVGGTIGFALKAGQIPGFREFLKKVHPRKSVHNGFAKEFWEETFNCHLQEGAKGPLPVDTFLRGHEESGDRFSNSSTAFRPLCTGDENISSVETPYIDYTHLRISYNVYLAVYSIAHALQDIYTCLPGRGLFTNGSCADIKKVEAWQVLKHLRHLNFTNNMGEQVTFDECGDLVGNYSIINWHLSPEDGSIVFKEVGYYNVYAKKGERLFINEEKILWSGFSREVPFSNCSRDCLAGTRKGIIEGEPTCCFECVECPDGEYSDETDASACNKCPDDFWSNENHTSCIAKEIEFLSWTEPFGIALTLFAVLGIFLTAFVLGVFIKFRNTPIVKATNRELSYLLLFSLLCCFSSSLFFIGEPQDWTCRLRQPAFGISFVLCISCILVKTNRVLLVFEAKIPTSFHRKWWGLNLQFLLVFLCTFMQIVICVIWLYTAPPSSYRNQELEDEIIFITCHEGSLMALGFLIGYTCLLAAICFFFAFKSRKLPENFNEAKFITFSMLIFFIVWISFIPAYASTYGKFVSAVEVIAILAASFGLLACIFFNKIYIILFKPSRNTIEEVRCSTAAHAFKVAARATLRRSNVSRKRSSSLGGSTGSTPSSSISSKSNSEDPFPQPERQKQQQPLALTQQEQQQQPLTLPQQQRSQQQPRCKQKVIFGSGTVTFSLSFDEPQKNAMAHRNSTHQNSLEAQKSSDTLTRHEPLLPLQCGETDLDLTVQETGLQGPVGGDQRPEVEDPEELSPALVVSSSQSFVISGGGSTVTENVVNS
The test can be described thus: [Ca2+]i fluorescence assay in HEK 293 4.0-7 cells expressing hPCaR. The following applies: buffer with 1 mM CaCl2. It counts as cell-based. Here is the method:
The activities of the compounds of the present invention on calcium receptors were measured. In one embodiment, the measurement was performed in accordance with the method described in Example 4 of Nemeth et al., PCT/US95/13704 (International Publication No. WO96/12697) herein incorporated by reference.
A 4.0-kb NotI-HindIII fragment of the human parathyroid cell Ca^2+ receptor (hPCaR) cDNA was subcloned into the mammalian expression vector pCEP4 (Invitrogen) containing the hygromycin-resistant gene as a selectable marker. This plasmid was transfected into HEK 293 cells by calcium phosphate precipitation. Transfected cells were grown in Dulbecco's modified Eagle's medium containing 10% fetal bovine serum and hygromycin (200 μg/mL). Hygromycin-resistant colonies were subcloned and assayed for hPCaR mRNA by solution hybridization using a ^32P-labeled RNA probe complementary to the (4.0 kb) hPCaR sequence (Garrett, et al., J. Biol. Chem. 270, 12919-12925 (1995)). Clone 7 was used to assess the effects of compounds on [Ca^2+]i. This stably transfected cell line was termed HEK 293 4.0-7. For measurements of [Ca^2+]i, the cells were recovered from tissue culture flasks by brief treatment with Versene (Invitrogen; Containing 0.2 g/L EDTA.4Na in phosphate-buffered saline) and then seeded in collagen coated 384-well plates (BD Biosciences) at 20K cells per well in the growth media (same as above). Cells were grown in 37c TC incubator overnight. Then, the media was discarded and cells were loaded with 1× dye from Ca^2+ Assay Kit I (BD Biosciences) in parathyroid cell buffer (126 mM NaCl, 4 mM KCl, 1 mM MgSO4, 0.7 mM K2HPO4/KH2PO4, 20 mM HEPES.NaOH (pH 7.45)) containing 0.5% BSA and 1 mM CaCl2. Cells were loaded at room temperature for 90 minutes. Each test compound was added to the cells and the fluorescence was recorded by using excitation and emission wavelengths of 485 and 530 nm, respectively.
`CC(C)(C)OC(=O)NCCN(CCC(c1ccccc1)c1ccccc1)C(=O)Nc1nc2ccccc2s1` [Example 148, {2-[3-Benzothiazol-2-yl-1-(3,3-diphenyl-propyl)-ureido]-ethyl}-carbamic acid tert-butyl ester] came in with an EC50 of 100 to 1000 nM. Under `CS(=O)(=O)Nc1ccc(-c2csc(NC(=O)N(CCC(N)=O)CCC(c3ccccc3)c3ccccc3)n2)cc1` [Example 77, 1-(3-amino-3-oxopropyl)-1-(3,3-diphenylpropyl)-3-(4-(4-(methylsulfonamido)phenyl)thiazol-2-yl)urea] stands < 100 nM. Compound `O=C(CCCN(CCC(c1ccccc1)c1ccccc1)C(=O)Nc1nc2ccccc2s1)N1CCCCC1` [Example 105, 3-(benzo[d]thiazol-2-yl)-1-(3,3-diphenylpropyl)-1-(4-oxo-4-(piperidin-1-yl)butyl)urea] had a half-maximal effective concentration (EC50) of 100 to 1000 nM. For `CC(CN(CCC(c1ccccc1)c1ccccc1)C(=O)Nc1nc2ccccc2s1)C(=O)O` (stereo not drawn) [Example 122, 3-(3-(benzo[d]thiazol-2-yl)-1-(3,3-diphenylpropyl)ureido)-2-methylpropanoic acid] the value was 1000 to 5000 nM. Under `CS(=O)(=O)Nc1ccc(-c2csc(NC(=O)N(CCCC(=O)N[C@@H]3CCCNC3)CCC(c3ccccc3)c3ccccc3)n2)cc1` [Example 67, (R)-1-(3,3-diphenylpropyl)-3-(4-(4-(methylsulfonamido)phenyl)thiazol-2-yl)-1-(4-oxo-4-(piperidin-3-ylamino)butyl)urea] stands < 100 nM; under `C[C@H]1CN(C(=O)CCN(CCC(c2ccccc2)c2ccccc2)C(=O)Nc2nc3ccccc3s2)CCN1` [Example 115, (S)-3-(benzo[d]thiazol-2-yl)-1-(3,3-diphenylpropyl)-1-(3-(3-methylpiperazin-1-yl)-3-oxopropyl)urea], 100 to 1000 nM. Compound `CN(C)S(=O)(=O)NCCN(CCC(c1ccccc1)c1ccccc1)C(=O)Nc1nc2ccccc2s1` [Example 174, N,N-dimethylamino-sulfonyl-{2-[3-benzothiazol-2-yl-1-(3,3-diphenyl-propyl)-ureido]-ethyl}-amide] registered an EC50 of 100 to 1000 nM.

With `CC(=O)Nc1ccc(S(=O)(=O)NCCN(CCC(c2ccccc2)c2ccccc2)C(=O)Nc2nc3ccccc3s2)cc1` [Example 170, N-(4-{2-[3-Benzothiazol-2-yl-1-(3,3-diphenylpropyl)-ureido]-ethylsulfamoyl}-phenyl)acetamide], the EC50 lay within 100 to 1000 nM. Regarding `O=C(CCCN(CCC(c1ccccc1)c1ccccc1)C(=O)Nc1nc2ccccc2s1)N1CCNCC1` [Example 82, 3-(benzo[d]thiazol-2-yl)-1-(3,3-diphenylpropyl)-1-(4-oxo-4-(piperazin-1-yl)butyl)urea], the EC50 was < 100 nM. For `C[C@@H]1CN(C(=O)CCCN(CCC(c2ccccc2)c2ccccc2)C(=O)Nc2nc(-c3ccccc3)cs2)CCN1` [Example 99, (R)-1-(3,3-diphenylpropyl)-1-(4-(3-methylpiperazin-1-yl)-4-oxobutyl)-3-(4-phenylthiazol-2-yl)urea] the value was 100 to 1000 nM; for `NC(=O)CCN(CCC(c1ccccc1)c1ccccc1)C(=O)Nc1nc(-c2ccccc2)c(Cl)s1` [Example 110, 1-(3-amino-3-oxopropyl)-3-(5-chloro-4-phenylthiazol-2-yl)-1-(3,3-diphenylpropyl)urea], 100 to 1000 nM; for `C[C@H]1CN(C(=O)CCCN(CCC(c2ccccc2)c2ccccc2)C(=O)Nc2nc(-c3ccccc3)cs2)CCN1` [Example 90, (S)-1-(3,3-diphenylpropyl)-1-(4-(3-methylpiperazin-1-yl)-4-oxobutyl)-3-(4-phenylthiazol-2-yl)urea], 100 to 1000 nM. For `CC(CN(CCC(c1ccccc1)c1ccccc1)C(=O)Nc1nc(-c2ccccc2)cs1)C(=O)O` (stereo not drawn) [Example 69, 3-(1-(3,3-diphenylpropyl)-3-(4-phenylthiazol-2-yl)ureido)-2-methylpropanoic acid] the value was < 100 nM; for `CS(=O)(=O)NCCN(CCC(c1ccccc1)c1ccccc1)C(=O)Nc1nc(-c2ccc(NS(C)(=O)=O)cc2)c(Cl)s1` [Example 139, 3-(5-chloro-4-(4-(methylsulfonamido)phenyl)thiazol-2-yl)-1-(3,3-diphenylpropyl)-1-(2-(methylsulfonamido)ethyl)urea], < 100 nM; for `CN(C)CC(C)(C)CNCCN(CCC(c1ccccc1)c1ccccc1)C(=O)Nc1nc2ccccc2s1` [Example 150, 3-Benzothiazol-2-yl-1-[2-(3-dimethylamino-2,2-dimethyl-propylamino)-ethyl]-1-(3,3-diphenyl-propyl)-urea trihydrochloride], 1000 to 5000 nM.

For the compound `O=C(CCCN(CCC(c1ccccc1)c1ccccc1)C(=O)Nc1nc(-c2ccccc2)cs1)N[C@H]1CCCNC1` [Example 78, (S)-1-(3,3-diphenylpropyl)-1-(4-oxo-4-(piperidin-3-ylamino)butyl)-3-(4-phenylthiazol-2-yl)urea], the EC50 is < 100 nM. `O=C(CCN(CCC(c1ccccc1)c1ccccc1)C(=O)Nc1nc(-c2ccccc2)cs1)N[C@H]1CCCNC1` [Example 93, (S)-1-(3,3-diphenylpropyl)-1-(3-oxo-3-(piperidin-3-ylamino)propyl)-3-(4-phenylthiazol-2-yl)urea] returned a 50% effective concentration (EC50) of 100 to 1000 nM.

`O=C(O)CCCN(CCC(c1ccccc1)c1ccccc1)C(=O)Nc1nc(-c2ccccc2)cs1` [Example 111, 4-(1-(3,3-diphenylpropyl)-3-(4-phenylthiazol-2-yl)ureido)butanoic acid] registered an EC50 of 100 to 1000 nM. Consider `CS(=O)(=O)Nc1ccc(-c2nc(NC(=O)N(CCC(=O)O)CCC(c3ccccc3)c3ccccc3)sc2Cl)cc1` [Example 98, 3-(3-(5-chloro-4-(4-(methylsulfonamido)phenyl)thiazol-2-yl)-1-(3,3-diphenylpropyl)ureido)propanoic acid], for which the EC50 lay within 100 to 1000 nM.

As for `CS(=O)(=O)c1ccc(-c2nc(NC(=O)N(CCCC(=O)O)CCC(c3ccccc3)c3ccccc3)sc2Cl)cc1` [Example 72, 4-(3-(5-chloro-4-(4-(methylsulfonyl)phenyl)thiazol-2-yl)-1-(3,3-diphenylpropyl)ureido)butanoic acid], the concentration giving a half-maximal response (EC50) was < 100 nM. Take `CC(C)N1CCN(C(=O)CCCN(CCC(c2ccccc2)c2ccccc2)C(=O)Nc2nc3ccccc3s2)CC1` [Example 118, 3-(benzo[d]thiazol-2-yl)-1-(3,3-diphenylpropyl)-1-(4-(4-isopropylpiperazin-1-yl)-4-oxobutyl)urea]: the EC50 fell in the range of 100 to 1000 nM. On to `CS(=O)(=O)Nc1ccc(-c2nc(NC(=O)N(CCOC(N)=O)CCC(c3ccccc3)c3ccccc3)sc2Cl)cc1` [Example 132, 2-(3-(5-chloro-4-(4-(methylsulfonamido)phenyl)thiazol-2-yl)-1-(3,3-diphenylpropyl)ureido)ethyl carbamate], for which the EC50 was < 100 nM.

The compound `CCOC(=O)CCCN(CCC(c1ccccc1)c1ccccc1)C(=O)Nc1nc2ccccc2s1` [Example 116, ethyl 4-(3-(benzo[d]thiazol-2-yl)-1-(3,3-diphenylpropyl)ureido)butanoate] registered a concentration giving a half-maximal response (EC50) of 100 to 1000 nM. Consider `NC(=O)CCCN(CCC(c1ccccc1)c1ccccc1)C(=O)Nc1nc(-c2ccccc2)c(Cl)s1` [Example 81, 1-(4-amino-4-oxobutyl)-3-(5-chloro-4-phenylthiazol-2-yl)-1-(3,3-diphenylpropyl)urea], for which the EC50 is < 100 nM.

One may read the EC50 as the midpoint of the concentration-response curve. Low readings indicate greater potency, high ones weaker potency.
